# Test results as given in publication PMC4905667, “Discovery of Small-Molecule Modulators of the Human Y4 Receptor” (PLoS ONE, 2016).
# Where two headings read alike, the source gives them in different places. No end group written: not given here.
# Assays:
# [1] = target: T1, human Y4R (Homo sapiens, UniProt P50391); test: Inositol phosphate (IP3) accumulation assay, Y4R stimulated with PP; type: cell-based; conditions: for IP accumulation following stimulation of Y4R (DMSO set to 100%): 10 μM compound, 1 nM PP, COS-7 cells with Δ6Gαqi4myr, mean ± SEM, n = 2; for Effect of compound on potency (pEC50) of PP at Y4R (in words): 30 μM compound vs DMSO, full PP concentration-response; for EC50 / Y4R PAM activity, potentiation of a PP EC20 response (in words): IP accumulation; for EC50: three independent experiments in duplicate; for Y4R PAM activity, potentiation of a PP EC20 response (in words): concentration-dependent
# T1 construct: expressed in transfected cells
# T1 sequence (P50391 whole entry): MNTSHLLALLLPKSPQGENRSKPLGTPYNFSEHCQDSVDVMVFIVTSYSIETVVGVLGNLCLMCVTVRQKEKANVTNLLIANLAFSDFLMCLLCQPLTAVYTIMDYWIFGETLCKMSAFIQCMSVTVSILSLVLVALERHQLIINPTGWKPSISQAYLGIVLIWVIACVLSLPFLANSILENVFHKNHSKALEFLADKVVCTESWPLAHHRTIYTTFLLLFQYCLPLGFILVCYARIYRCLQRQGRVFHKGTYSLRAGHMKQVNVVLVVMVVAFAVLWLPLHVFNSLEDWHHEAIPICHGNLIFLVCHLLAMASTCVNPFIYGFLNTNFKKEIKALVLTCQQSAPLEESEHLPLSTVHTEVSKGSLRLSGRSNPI
# Experimental: (§1) COS-7 cells stably expressing hY1/2/4/5R_eYFP fusion protein and the Δ6Gαqi4myr chimeric Gα-protein were prepared as previously described. The hY1/2/4/5R_eYFP cDNA was subcloned into MCS1 of a pVitro2-MCS vector carrying a hygromycin resistance gene; the Δ6Gαqi4myr cDNA was subcloned into MCS1 of a pVitro2-MCS vector carrying a G418 resistance gene (Invivogen, San Diego, CA).
# (§2) COS-7 (African Green Monkey kidney) cells stably expressing the hY1/2/4/5R_eYFP fusion protein and the Δ6Gαqi4myr chimeric Gα-protein were cultured at 37°C in high glucose Dulbecco’s Modified Eagle Medium (DMEM, Life Technologies, Carlsbad, CA) with glutamine and sodium pyruvate (Life Technologies/Lonza) supplemented with 10% (w/v) FBS (Invitrogen, Carlsbad, CA), 1.5 mg/mL G418-sulfate (Amresco, Solon, OH) and 133 μg/ml hygromycin (Invivogen).
# (§3) Cells were seeded into 48-well plates and incubated for 24 hours at 37°C / 5% CO2. Afterwards, cells were labeled for at least 16 hours in DMEM+10% (w/v) FBS containing 2 μCi/ml myo-[2- ^3H(N)]-inositol (PerkinElmer) at 37°C / 5% CO2. Labeling solution was aspirated and cells were washed with 20 μL/well DMEM + 10 mM LiCl (Sigma-Aldrich; DMEM/LiCl) and stimulated with the peptide solutions and compounds. Specifically, 50 μl/well DMEM/LiCl were added after washing, followed by addition of 50 μl/well test compound in DMEM/LiCl (3-fold over the final concentration) and addition of 50 μl/well peptide solution (3-fold over the final concentration) in DMEM/LiCl. Stimulation was performed for 2 hours at 37°C / 5% CO2. Cell lysis, subsequent sample preparation and radiometric detection was performed as described previously.
# (§4) Data analysis was performed with GraphPad Prism 5.03 software (GraphPad Software, San Diego, CA). Calculation of EC50 and pEC50 was performed using standard non-linear regression (log(agonist) vs. response, three parameters). All data were normalized to the corresponding control curve in the absence of the modulator. Final concentration response curves were created by calculating the mean and SEM of all individual experiments for each data point. Statistical evaluation was performed using two-way ANOVA and Bonferroni post test with * P ≤ 0.05, ** P ≤ 0.01, *** P ≤ 0.001.
# (§5) Until now, no small molecule agonists of Y receptors have been described. Based on this lack of any structure activity data, identification of Y4R PAMs was initiated with a Ca^2+-flux-based HTS approach. An initial pilot screen was performed with the ‘Spectrum collection’, a small scale library with 2000 compounds comprising synthetic small molecules as well as purified natural products covering a range of known biologically active properties. This pilot screen yielded 65 putative PAMs. All initial hits were retested for off-target effects in wildtype COS-7 cells and the PAM effect was validated via concentration-dependent potentiation of a submaximal PP response. After eliminating structures that show off-target effects, seven compounds with potencies in the micromolar range were identified (S1 Fig) for further investigation. Validation of the Y4R PAM activity was performed with a well-established assay system for Y receptor activation studies, based on cellular accumulation of inositol phosphate. Furthermore, the compound activity at Y1R, Y2R and Y5R was examined at this stage of Y4R PAM identification. Therefore, Y receptor activation with an agonist ligand concentration causing a submaximal response (1 nM, Fig 1) was monitored in presence and absence of test compound. This experimental setup allows the detection of potential compound-induced shifts of the concentration-response curve and parallel testing of all compounds on all Y receptor subtypes. […]
# [2] = test system: T2, human Y1R; test: Inositol phosphate (IP3) accumulation assay, Y1R stimulated with NPY; type: cell-based; conditions: for Effect of compound on potency (pEC50) of NPY at Y1R (in words): 30 μM compound vs DMSO, full NPY concentration-response
# T2 construct: expressed in transfected cells
# Experimental: as §1, §2, §3, §4, §5
# [3] = test system: T3, human Y2R; test: Inositol phosphate (IP3) accumulation assay, Y2R stimulated with NPY; type: cell-based; conditions: for Effect of compound on potency (pEC50) of NPY at Y2R (in words): 30 μM compound vs DMSO, full NPY concentration-response
# T3 construct: expressed in transfected cells
# Experimental: as §1, §2, §3, §4, §5
# [4] = test system: T4, human Y5R; test: Inositol phosphate (IP3) accumulation assay, Y5R stimulated with NPY; type: cell-based; conditions: for Effect of compound on potency (pEC50) of NPY at Y5R (in words): 30 μM compound vs DMSO, full NPY concentration-response
# T4 construct: expressed in transfected cells
# Experimental: as §1, §2, §3, §4
# as §5, with “Furthermore, the compound activity at Y1R, Y2R and Y5R was examined at this stage of Y4R PAM identification.” left out, “compound.” for “compound. This experimental setup allows the detection of potential compound-induced shifts of the concentration-response curve and parallel testing of all compounds on all Y receptor subtypes.”
# [5] = HPLC analysis of stability in DMEM assay conditions; type: physicochemical; conditions: pre-incubated in DMEM for 2 hours at 37°C
# Experimental: Supplementary file pone.0157146.s003.png: S3 Fig HPLC analysis of VU0118748 stability in DMEM assay conditions. […] To test the stability of VU0118748 in the assay conditions, the compound was pre-incubated in DMEM for 2 hours at 37°C. […] (PNG) Click here for additional data file.
# [6] = test system: T5, Y4R; test: HTS calcium flux assay; type: cell-based, human; conditions: Ca2+ flux, COS-7 hY4R_eYFP Δ6Gαqi4myr
# T5 construct: expressed in transfected cells
# Experimental: as §1, §2
# The purities of compounds in the Vanderbilt HTS facility are more than 95% as confirmed by the supplier. A total of 35,288 compounds were tested for their ability to modulate the Y4R activation in conjunction with the Vanderbilt HTS facility. In a pilot HTS experiment, 2000 compounds (spectrum collection, MicroSource Discovery Systems, Inc., Gaylordsville, CT) were screened for modulation of the Y4R. […]
# [7] = test system: db/db mice and high fat diet induced obesity in mice; parameters: method as in PMID 25282357; conditions: fed to mice, high nanomolar blood concentrations; cited from earlier work
# [8] = read-out: EC50, potentiation of a PP EC20 response at Y4R
# [9] = 10 μM compound, 1 nM NPY, mean ± SEM, n = 2
# [10] = read-out: pEC50 ± SEM, potentiation of a PP EC20 response at Y4R (converted)
molecule,measurement,setting,value
"O=C(Nc1ccc([N+](=O)[O-])cc1Cl)c1cc(Cl)ccc1O [Niclosamide, reference compound]",IP accumulation following stimulation of Y4R (DMSO set to 100%),[1],185.7 ± 23.5%
same,Effect of compound on potency (pEC50) of PP at Y4R (in words),[1],increase the potency of PP
same,EC50,[1]; [8],620 nM
same,Increase in the potency of PP at Y4R (EC50 shift),[1]; in presence of compound,4 fold
same,IP accumulation following stimulation of Y1R (DMSO set to 100%),[2]; [9],125.4 ± 14.6%
same,Effect of compound on potency (pEC50) of NPY at Y1R (in words),[2],small PAM effect
same,IP accumulation following stimulation of Y2R (DMSO set to 100%),[3]; [9],88.5 ± 6.2%
same,Effect of compound on potency (pEC50) of NPY at Y2R (in words),[3],no effect
same,IP accumulation following stimulation of Y5R (DMSO set to 100%),[4]; [9],83.4 ± 5.9%
same,Effect of compound on potency (pEC50) of NPY at Y5R (in words),[4],negative allosteric effect
O=C(Oc1ccc(Cl)cc1C(=O)Nc1ccc([N+](=O)[O-])cc1Cl)c1ccc([N+](=O)[O-])cc1 [VU0118748],Effect of compound on potency (pEC50) of PP at Y4R (in words),[1],increase the potency of PP
same,EC50,[1]; [8],473 nM
same,EC50,[1]; [10],437 nM
same,Effect of compound on potency (pEC50) of NPY at Y1R (in words),[2],no effect
same,Compound still intact,[5],95%
same,Effect of compound on potency (pEC50) of NPY at Y5R (in words),[4],negative allosteric effect
O=C(Nc1ccc(Cl)cc1)c1cc([N+](=O)[O-])ccc1O [VU0049150],Effect of compound on potency (pEC50) of PP at Y4R (in words),[1],increase the potency of PP
same,EC50,[1]; [8],> 10000 nM
same,Effect of compound on potency (pEC50) of NPY at Y1R (in words),[2],no effect
"Nc1ncnc2c1ncn2[C@@H]1O[C@H](CO)[C@@H](O)[C@H]1O [adenosine, reference compound]",IP accumulation following stimulation of Y4R (DMSO set to 100%),[1],120 ± 11%
same,Effect on Y1R signal transduction (in words),"[2]; 10 μM compound, 1 nM NPY",slightly decrease
same,Effect on Y5R signal transduction (in words),"[4]; 10 μM compound, 1 nM NPY",slightly decrease
Cc1ccc(NC(=O)c2cc([N+](=O)[O-])ccc2O)cc1 [VU0048992],Effect of compound on potency (pEC50) of PP at Y4R (in words),[1],increase the potency of PP
same,EC50,[1]; [8],> 10000 nM
same,Effect of compound on potency (pEC50) of NPY at Y1R (in words),[2],no effect
same,Effect of compound on potency (pEC50) of NPY at Y2R (in words),[3],slight PAM effect
COc1ccc(/C=C/C(=O)c2ccc(O)cc2O)cc1OC [VU0244224],IP accumulation following stimulation of Y4R (DMSO set to 100%),[1],127 ± 19%
same,Effect on Y1R signal transduction (in words),"[2]; 10 μM compound, 1 nM NPY",no effects
same,Effect on Y2R signal transduction (in words),"[3]; 10 μM compound, 1 nM NPY",no effects
same,Effect on Y5R signal transduction (in words),"[4]; 10 μM compound, 1 nM NPY",no effects
"pancreatic polypeptide (APLEPVYPGDNATPEQMAQYAADLRRYINMLTRPRY; ends and bridges not checked; UniProt P01298 30-65, looked up) [PP, native peptide ligand of the Y4R]",PP EC20,[6],0.055 ± 0.027 nM
same,PP EC80,[6],0.836 ± 0.033 nM
NCCO.O=C(Nc1ccc([N+](=O)[O-])cc1Cl)c1cc(Cl)ccc1O [ethanolamine salt form of Niclosamide],"Efficacy on diabetic symptoms (plasma insulin decline, insulin response, high fat diet induced obesity)",[7],efficacious
O=C(Nc1cc(C(F)(F)F)ccc1Cl)c1ccc(F)c([N+](=O)[O-])c1 [VU0114795],"Y4R PAM activity, potentiation of a PP EC20 response (in words)",[1],inactive
same,Effect of compound on potency (pEC50) of NPY at Y2R (in words),[3],slight PAM effect
O=C(Nc1ccc([N+](=O)[O-])cc1)c1cc(Br)ccc1O [VU0048913],Effect of compound on potency (pEC50) of PP at Y4R (in words),[1],increase the potency of PP
same,EC50,[1]; [8],566 nM
same,EC50,[1]; [10],575 nM
same,Effect of compound on potency (pEC50) of NPY at Y1R (in words),[2],no effect
same,Effect of compound on potency (pEC50) of NPY at Y2R (in words),[3],slight PAM effect
O=C(Nc1ccc([N+](=O)[O-])cc1Cl)c1ccncc1 [VU0357475],"Y4R PAM activity, potentiation of a PP EC20 response (in words)",[1],inactive
